Measurements reported in ChEMBL document CHEMBL5678818, “Discovery of potent SOS1 inhibitors that block RAS activation via disruption of the RAS-SOS1 interaction” (Proc Natl Acad Sci U S A, 2019).

How the values were obtained:
[1] = target: T1, Serine/threonine-protein kinase BRSK1 (Homo sapiens) (UniProt Q8TDC3); assay: Inhibition of BRSK1 (unknown origin) assessed as residual activity at 100 nM by KINOMEscan analysis relative to control
T1 sequence (whole entry): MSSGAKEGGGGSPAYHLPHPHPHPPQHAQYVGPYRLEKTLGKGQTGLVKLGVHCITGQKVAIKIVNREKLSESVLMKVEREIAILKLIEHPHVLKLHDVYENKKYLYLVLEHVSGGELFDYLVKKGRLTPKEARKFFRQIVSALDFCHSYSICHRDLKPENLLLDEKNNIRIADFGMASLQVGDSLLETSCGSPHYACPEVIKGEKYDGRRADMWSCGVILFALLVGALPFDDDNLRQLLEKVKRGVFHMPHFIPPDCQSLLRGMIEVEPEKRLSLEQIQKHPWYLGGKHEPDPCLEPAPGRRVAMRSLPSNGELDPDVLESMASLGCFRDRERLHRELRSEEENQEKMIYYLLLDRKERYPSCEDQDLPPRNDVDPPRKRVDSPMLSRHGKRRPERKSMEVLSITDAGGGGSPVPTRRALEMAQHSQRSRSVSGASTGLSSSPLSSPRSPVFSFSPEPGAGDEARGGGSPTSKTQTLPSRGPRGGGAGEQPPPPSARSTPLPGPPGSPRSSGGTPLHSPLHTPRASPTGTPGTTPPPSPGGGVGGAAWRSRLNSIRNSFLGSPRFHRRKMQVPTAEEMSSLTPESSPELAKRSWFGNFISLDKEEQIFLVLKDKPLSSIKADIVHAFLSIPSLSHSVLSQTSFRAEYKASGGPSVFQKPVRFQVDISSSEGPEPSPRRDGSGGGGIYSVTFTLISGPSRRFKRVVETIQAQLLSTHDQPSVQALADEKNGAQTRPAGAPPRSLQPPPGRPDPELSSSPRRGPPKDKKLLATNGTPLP

[2] = target: Tyrosine-protein kinase FRK (Homo sapiens) (UniProt P42685); assay: Inhibition of FRK (unknown origin) assessed as residual activity at 100 nM by KINOMEscan analysis relative to control
[3] = target: Homeodomain-interacting protein kinase 3 (Homo sapiens) (UniProt Q9H422); assay: Inhibition of HIPK3 (unknown origin) assessed as residual activity at 100 nM by KINOMEscan analysis relative to control
[4] = target: T2, Hormonally up-regulated neu tumor-associated kinase (Homo sapiens) (UniProt P57058); assay: Inhibition of HUNK (unknown origin) assessed as residual activity at 100 nM by KINOMEscan analysis relative to control
T2 sequence (whole entry): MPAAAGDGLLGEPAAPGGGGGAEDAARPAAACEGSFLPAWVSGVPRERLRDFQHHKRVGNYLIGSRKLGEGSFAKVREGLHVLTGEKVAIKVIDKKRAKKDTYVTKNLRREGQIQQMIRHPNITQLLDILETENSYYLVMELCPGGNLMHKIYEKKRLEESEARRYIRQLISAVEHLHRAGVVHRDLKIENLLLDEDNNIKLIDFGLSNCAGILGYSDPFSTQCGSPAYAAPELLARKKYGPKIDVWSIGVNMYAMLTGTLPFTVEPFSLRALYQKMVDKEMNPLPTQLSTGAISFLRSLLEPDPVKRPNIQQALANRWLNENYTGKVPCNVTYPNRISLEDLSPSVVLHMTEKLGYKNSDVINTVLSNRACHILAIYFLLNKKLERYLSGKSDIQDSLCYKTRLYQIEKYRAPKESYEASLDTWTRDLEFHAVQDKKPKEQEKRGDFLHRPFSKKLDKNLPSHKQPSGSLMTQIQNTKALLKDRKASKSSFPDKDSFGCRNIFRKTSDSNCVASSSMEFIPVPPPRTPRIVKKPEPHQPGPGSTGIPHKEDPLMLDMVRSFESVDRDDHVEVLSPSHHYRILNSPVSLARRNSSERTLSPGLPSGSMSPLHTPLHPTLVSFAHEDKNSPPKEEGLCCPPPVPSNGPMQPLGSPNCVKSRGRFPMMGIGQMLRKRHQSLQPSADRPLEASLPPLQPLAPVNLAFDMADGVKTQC

Homo sapiens = organism: Homo sapiens; assay: Inhibition of PIP5K1C (unknown origin) assessed as residual activity at 100 nM by KINOMEscan analysis relative to control
[5] = target: T3, Serine/threonine-protein kinase D3 (Homo sapiens) (UniProt O94806); assay: Inhibition of PRKD3 (unknown origin) assessed as residual activity at 100 nM by KINOMEscan analysis relative to control
T3 sequence (whole entry): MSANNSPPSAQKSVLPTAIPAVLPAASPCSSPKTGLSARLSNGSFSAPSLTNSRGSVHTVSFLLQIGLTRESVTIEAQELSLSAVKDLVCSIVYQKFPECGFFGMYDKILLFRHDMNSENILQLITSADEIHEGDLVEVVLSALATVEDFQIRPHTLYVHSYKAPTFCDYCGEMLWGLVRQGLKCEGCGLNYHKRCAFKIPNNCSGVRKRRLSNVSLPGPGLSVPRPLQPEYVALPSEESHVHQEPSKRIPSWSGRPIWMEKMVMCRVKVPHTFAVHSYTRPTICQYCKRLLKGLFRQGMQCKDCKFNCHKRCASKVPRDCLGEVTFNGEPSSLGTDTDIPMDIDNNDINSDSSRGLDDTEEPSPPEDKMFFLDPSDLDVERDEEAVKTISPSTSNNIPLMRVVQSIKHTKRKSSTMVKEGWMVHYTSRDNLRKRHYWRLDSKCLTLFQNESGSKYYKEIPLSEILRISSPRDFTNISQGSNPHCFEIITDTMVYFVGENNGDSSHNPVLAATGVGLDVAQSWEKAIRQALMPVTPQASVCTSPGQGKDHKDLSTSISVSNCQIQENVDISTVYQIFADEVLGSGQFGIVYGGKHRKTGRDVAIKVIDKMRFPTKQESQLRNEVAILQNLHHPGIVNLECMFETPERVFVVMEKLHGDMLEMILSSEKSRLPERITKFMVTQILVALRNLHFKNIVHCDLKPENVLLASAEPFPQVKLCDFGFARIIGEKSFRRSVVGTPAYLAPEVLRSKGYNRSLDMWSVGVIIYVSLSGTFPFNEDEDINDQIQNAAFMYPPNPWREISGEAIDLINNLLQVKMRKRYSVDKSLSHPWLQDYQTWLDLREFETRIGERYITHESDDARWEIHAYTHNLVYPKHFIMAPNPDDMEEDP

[6] = target: NT-3 growth factor receptor (Homo sapiens) (UniProt Q16288); assay: Inhibition of TRKC (unknown origin) assessed as residual activity at 100 nM by KINOMEscan analysis relative to control
NT-3 growth factor receptor (Homo sapiens), sequence (Q16288 32-839 limits assumed): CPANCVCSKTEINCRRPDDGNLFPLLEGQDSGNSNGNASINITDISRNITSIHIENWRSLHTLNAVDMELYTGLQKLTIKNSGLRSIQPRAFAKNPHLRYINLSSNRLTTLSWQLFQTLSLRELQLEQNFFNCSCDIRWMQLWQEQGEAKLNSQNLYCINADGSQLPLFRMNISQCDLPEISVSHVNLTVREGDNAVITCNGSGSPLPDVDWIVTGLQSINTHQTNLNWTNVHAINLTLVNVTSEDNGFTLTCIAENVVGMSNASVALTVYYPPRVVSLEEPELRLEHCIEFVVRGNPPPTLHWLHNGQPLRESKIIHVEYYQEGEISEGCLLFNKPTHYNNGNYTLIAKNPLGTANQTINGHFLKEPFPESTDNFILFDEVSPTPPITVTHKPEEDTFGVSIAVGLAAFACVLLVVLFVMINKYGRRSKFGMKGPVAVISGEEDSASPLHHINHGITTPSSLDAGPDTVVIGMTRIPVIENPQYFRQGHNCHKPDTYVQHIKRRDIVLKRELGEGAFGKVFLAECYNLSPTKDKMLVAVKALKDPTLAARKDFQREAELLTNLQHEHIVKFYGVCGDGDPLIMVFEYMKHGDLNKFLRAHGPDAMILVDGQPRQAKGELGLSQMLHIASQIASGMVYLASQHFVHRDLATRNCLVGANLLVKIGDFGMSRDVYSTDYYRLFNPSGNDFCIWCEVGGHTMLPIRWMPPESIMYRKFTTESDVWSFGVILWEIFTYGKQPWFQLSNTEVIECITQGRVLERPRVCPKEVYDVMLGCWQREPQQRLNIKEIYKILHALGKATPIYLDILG

Homeodomain-interacting protein kinase 3 (Homo sapiens), sequence (Q9H422 whole entry, looked up): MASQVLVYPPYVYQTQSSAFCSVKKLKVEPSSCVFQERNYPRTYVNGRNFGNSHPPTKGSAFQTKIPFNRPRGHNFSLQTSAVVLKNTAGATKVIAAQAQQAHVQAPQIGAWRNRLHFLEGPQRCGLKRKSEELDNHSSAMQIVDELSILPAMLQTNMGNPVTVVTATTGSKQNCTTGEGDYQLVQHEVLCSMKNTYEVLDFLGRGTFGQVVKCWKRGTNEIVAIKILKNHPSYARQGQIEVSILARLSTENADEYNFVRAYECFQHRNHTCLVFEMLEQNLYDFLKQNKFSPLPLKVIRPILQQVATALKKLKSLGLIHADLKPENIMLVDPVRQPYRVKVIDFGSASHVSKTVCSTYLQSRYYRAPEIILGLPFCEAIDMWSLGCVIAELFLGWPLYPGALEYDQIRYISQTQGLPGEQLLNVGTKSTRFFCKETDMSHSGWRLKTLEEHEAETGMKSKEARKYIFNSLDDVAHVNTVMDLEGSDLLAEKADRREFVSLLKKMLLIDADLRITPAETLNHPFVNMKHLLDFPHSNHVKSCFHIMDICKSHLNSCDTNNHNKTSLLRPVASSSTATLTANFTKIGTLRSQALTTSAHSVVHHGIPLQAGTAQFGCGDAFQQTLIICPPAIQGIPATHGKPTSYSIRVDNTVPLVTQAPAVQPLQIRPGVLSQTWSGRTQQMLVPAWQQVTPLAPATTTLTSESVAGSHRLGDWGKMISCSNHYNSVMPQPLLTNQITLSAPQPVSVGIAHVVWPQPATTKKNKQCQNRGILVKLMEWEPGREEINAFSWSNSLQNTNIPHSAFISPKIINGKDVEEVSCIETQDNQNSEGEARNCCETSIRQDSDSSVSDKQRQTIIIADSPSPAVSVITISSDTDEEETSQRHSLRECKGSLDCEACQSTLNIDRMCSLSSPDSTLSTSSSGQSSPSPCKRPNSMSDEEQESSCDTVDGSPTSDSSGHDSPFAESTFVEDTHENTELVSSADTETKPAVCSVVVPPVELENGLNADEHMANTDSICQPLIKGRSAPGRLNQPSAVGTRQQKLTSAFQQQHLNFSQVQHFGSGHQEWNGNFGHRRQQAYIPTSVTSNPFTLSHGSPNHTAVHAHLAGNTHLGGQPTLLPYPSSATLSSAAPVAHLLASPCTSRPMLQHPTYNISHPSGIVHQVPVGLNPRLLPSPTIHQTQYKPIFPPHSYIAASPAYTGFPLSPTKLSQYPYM
Tyrosine-protein kinase FRK (Homo sapiens), sequence (P42685 whole entry): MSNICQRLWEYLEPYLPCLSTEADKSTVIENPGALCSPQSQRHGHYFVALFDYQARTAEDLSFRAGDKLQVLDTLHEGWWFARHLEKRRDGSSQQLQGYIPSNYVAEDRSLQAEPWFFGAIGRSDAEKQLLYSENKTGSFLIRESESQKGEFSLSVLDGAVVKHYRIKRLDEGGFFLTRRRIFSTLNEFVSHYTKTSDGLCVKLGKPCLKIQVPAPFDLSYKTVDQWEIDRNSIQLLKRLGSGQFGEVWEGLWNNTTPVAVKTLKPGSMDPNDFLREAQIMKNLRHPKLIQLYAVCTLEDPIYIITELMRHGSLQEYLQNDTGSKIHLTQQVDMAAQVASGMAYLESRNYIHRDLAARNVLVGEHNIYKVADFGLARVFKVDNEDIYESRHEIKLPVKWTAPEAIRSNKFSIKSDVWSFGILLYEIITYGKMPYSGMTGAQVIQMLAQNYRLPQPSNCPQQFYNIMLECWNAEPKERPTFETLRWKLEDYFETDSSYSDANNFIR

Compound: COc1cc2ncnc(N[C@H](C)c3cccc4ccccc34)c2cc1OC
- Activity [1]: 100%
- Activity [2]: 93%
- Activity [3]: 88%
- Activity [4]: 91%
- Activity (Homo sapiens): 63%
- Activity [5]: 100%
- Activity [6]: 89%
